Experimental data as given in patent US20210130401A1, “PEPTIDOMIMETIC INHIBITORS OF THE WDR5-MLL INTERACTION” (THE REGENTS OF THE UNIVERSITY OF MICHIGAN, priority 2017, published 2021).
Where two headings read alike, the source gives them in different places. Each block holds one compound with its values, some of them ahead of it. Starred links: 1 amine or outer side, 2 acyl side, 3 side chain; linkers in the order of their positions; H or OH if unused. Positions of bridges follow the written chain, without caps; N, C: chain ends. Non-standard residues stand in square brackets, D forms with d. Residues, ends and D or L forms follow the SMILES beside them. *: point of attachment. dαMeLys(Me) = CN(CCCC[C@@](C)(N[*:1])C(=O)[*:2])[*:3]; dαMeDab = C[C@](CCN[*:3])(N[*:1])C(=O)[*:2]; Arg(Me2s) = CN=C(NC)NCCC[C@H](N)C(=O)O; dPhg(4-F) = N[C@@H](C(=O)O)c1ccc(F)cc1; Arg(Me) = CNC(=N)NCCC[C@H](N)C(=O)O; d(αMeK) = C[C@@](N)(CCCCN)C(=O)O; dPhg = N[C@@H](C(=O)O)c1ccccc1; Phg = N[C@H](C(=O)O)c1ccccc1; αMeK = C[C@](N)(CCCCN)C(=O)O; Isobutyryl = CC(C)C(=O)*; dAbu = CC[C@@H](N)C(=O)O; Abu = CC[C@H](N)C(=O)O

Tests used:
[1] = tested on: HL-60 leukemia cells carrying no MLL fusion; experiment: cell viability assay (WST-8), HL-60; type: cell-based; settings: Homo sapiens, HL-60, 96 h, read-out: Cell Growth Inhibition IC50 (μM) HL-60
Method: Cell viability was determined using the WST-8 cell proliferation assay kit (Dojindo Molecular Technologies) according to manufacturer's instructions. Three independent experiments in triplicates were performed.

WDR5 = biological target: T1, WDR5 (Homo sapiens, UniProt P61964); experiment: fluorescence polarization (FP) based competitive binding assay to WDR5 protein
T1 construct: N-terminal His-tagged WDR5 protein (residues 24-334), named WDR5Δ23; made in house; host or cells: E. coli Rosetta 2 (DE3)
Method: The plates were incubated at room temperature on a shaker for 3h, and then the mP values were measured using the Tecan Infinite M-1000 plate reader (Tecan U.S., Research Triangle Park, N.C.).

[2] = tested on: MV4;11 leukemia cells carrying MLL-AF4 fusion; experiment: cell viability assay (WST-8), MV4;11; type: cell-based; settings: Homo sapiens, MV4-11, 96 h, read-out: Cell Growth Inhibition IC50 (μM) MV-4-11
Method: (§1) To assess cell viability, MOLM-13 leukemia cells carrying MLL-AF9 fusion, MV4;11 leukemia cells carrying MLL-AF4 fusion or HL-60 leukemia cells carrying no MLL fusion were seeded 1×10^4 cell/well in 96-well plates and treated with an inhibitor for 4 days at different concentrations, in culture media containing 0.2% DMSO as the final concentration. Cell viability was determined using the WST-8 cell proliferation assay kit (Dojindo Molecular Technologies) according to manufacturer's instructions. Three independent experiments in triplicates were performed.

[3] = tested on: MOLM-13 leukemia cells carrying MLL-AF9 fusion; experiment: cell viability assay (WST-8), MOLM-13; type: cell-based; settings: Homo sapiens, MOLM-13, 96 h, read-out: Cell Growth Inhibition IC50 (μM) MOLM-13
Method: as §1

[4] = calculated from IC50 by published equation, read-out: Binding Affinity to WDR5 Ki ± SD
[5] = read-out: Binding Affinity to WDR5 IC50 ± SD
[6] = amide bond, 15-membered ring, HATU/DIEA, DMF, with chain assembly
[7] = amide bond, 14-membered ring, HATU/DIEA, DMF, with chain assembly

Compound: CC[C@@H]1NC(=O)[C@H](CCCNC(=N)NS(=O)(=O)c2c(C)c(C)c3c(c2C)CC(C)(C)O3)NC(=O)[C@](C)(NC(=O)C(C)C)CC=CCCCNC(=O)[C@@H](c2ccccc2)NC1=O
- ring closure, yield after HPLC (from iPrCO-(R)-αMe-allylGly-Arg(Pbf)-Abu-dPhg-NH-(pent-4-enyl)?, rcm bond, 18-membered ring, Hoveyda-Grubbs II (0.5 eq), CH2Cl2, 25.0 °C, 3 steps): 46%

Compound: CC[C@@H]1NC(=O)[C@H](CCCNC(=N)NS(=O)(=O)c2c(C)c(C)c3c(c2C)CC(C)(C)O3)NC(=O)[C@](C)(NC(=O)C(C)C)CC=CCNC(=O)[C@@H](c2ccccc2)NC1=O
- ring closure, yield after HPLC (from iPrCO-(R)-αMe-allylGly-Arg(Pbf)-Abu-dPhg-NH-allyl?, rcm bond, 16-membered ring, Hoveyda-Grubbs II (0.5 eq), CH2Cl2, 25.0 °C, 3 steps): 53%

- IC50 ([1]; 4 days treatment): 17.4 µM
- Ki (WDR5; [4]): < 0.001 µM
- IC50 (WDR5; [5]): 0.00108 ± 0.00012 µM
- IC50 ([2]; 4 days treatment): 0.46 ± 0.02 µM
- IC50 ([3]; 4 days treatment): 0.28 ± 0.02 µM
Compound: CC[C@@H]1NC(=O)[C@H](CCCNC(=N)N)NC(=O)[C@](C)(NC(=O)C(C)C)CCNC(=O)[C@@H](c2ccccc2)NC1=O [Cpd. No. 4, N-((3R,6S,9S,12R)-6-ethyl-9-(3-guanidinopropyl)-12-methyl-2,5,8,11-tetraoxo-3-phenyl-1,4,7,10-tetraazacyclotetradecan-12-yl)isobutyramide] (Isobutyryl-[dαMeDab]R[Abu][dPhg]; lactam 1-C)

- Ki (WDR5; [4]): < 0.001 µM
- IC50 (WDR5; [5]): 0.002 ± 0.0001 µM
- IC50 ([2]; 4 days treatment): 35 ± 4.4 µM
- IC50 ([3]; 4 days treatment): 14.3 ± 0.9 µM
Compound: CC[C@@H]1NC(=O)[C@H](CCCNC(=N)NC)NC(=O)[C@](C)(NC(=O)C(C)C)CCNC(=O)[C@H](c2ccccc2)NC1=O [Cpd. No. 62, N-((3S,6S,9S,12R)-6-ethyl-12-methyl-9-(3-(3-methylguanidino)propyl)-2,5,8,11-tetraoxo-3-phenyl-1,4,7,10-tetraazacyclotetradecan-12-yl)isobutyramide] (Isobutyryl-[dαMeDab][Arg(Me)][Abu][Phg]; lactam 1-C)

Compound: CC[C@@H]1NC(=O)[C@H](CCCNC(=N)N)NC(=O)[C@](C)(NC(=O)C(C)C)CCCCNC(=O)[C@@H](c2ccccc2)NC1=O [Cpd. No. 64, N-((3R,6S,9S,12R)-6-ethyl-9-(3-guanidinopropyl)-12-methyl-2,5,8,11-tetraoxo-3-phenyl-1,4,7,10-tetraazacyclohexadecan-12-yl)isobutyramide] (Isobutyryl-[d(αMeK)]R[Abu][dPhg]; lactam 1-C)
- IC50 [1]: > 100 µM

Compound: CC[C@@H]1NC(=O)[C@H](CCCNC(=N)N)NC(=O)[C@](C)(NC(=O)C(C)C)CCCCN(C)C(=O)[C@@H](c2ccc(F)cc2)NC1=O [Cpd. No. 66, N-((3R,6S,9S,12R)-6-ethyl-3-(4-fluorophenyl)-9-(3-guanidinopropyl)-1,12-dimethyl-2,5,8,11-tetraoxo-1,4,7,10-tetraazacyclohexadecan-12-yl)isobutyramide] (Isobutyryl-[dαMeLys(Me)]R[Abu][dPhg(4-F)]; lactam 1-C)
- IC50 [1]: 60 ± 19.7 µM
- IC50 (WDR5): 0.0016 ± 0.001 µM
- Ki (WDR5): < 0.001 µM
- IC50 [2]: 5.2 ± 1.1 µM
- IC50 [3]: 16.2 ± 6.1 µM

Compound: CC[C@@H]1NC(=O)[C@H](CCCNC(=N)NC)NC(=O)[C@](C)(NC(=O)C(C)C)CCCCNC(=O)[C@@H](c2ccccc2)NC1=O [Cpd. No. 68, N-((3R,6S,9S,12R)-6-ethyl-12-methyl-9-(3-(3-methylguanidino)propyl)-2,5,8,11-tetraoxo-3-phenyl-1,4,7,10-tetraazacyclohexadecan-12-yl)isobutyramide] (Isobutyryl-[d(αMeK)][Arg(Me)][Abu][dPhg]; lactam 1-C)
- IC50 [1]: > 100 µM
- IC50 (WDR5): 0.0011 ± 0.0003 µM
- Ki (WDR5): < 0.001 µM
- IC50 [2]: 4.3 ± 1.5 µM
- IC50 [3]: 3.6 ± 0.8 µM

Compound: CC[C@@H]1NC(=O)[C@H](CCCN/C(=N/C)NC)NC(=O)[C@](C)(NC(=O)C(C)C)CCCCNC(=O)[C@@H](c2ccccc2)NC1=O [Cpd. No. 69, N-((3R,6S,9S,12R)-9-(3-((E)-2,3-dimethylguanidino)propyl)-6-ethyl-12-methyl-2,5,8,11-tetraoxo-3-phenyl-1,4,7,10-tetraazacyclohexadecan-12-yl)isobutyramide] (Isobutyryl-[d(αMeK)][Arg(Me2s)][Abu][dPhg]; lactam 1-C)
- IC50 [1]: 84.8 ± 13.2 µM
- IC50 (WDR5): 0.0024 ± 0.0007 µM
- Ki (WDR5): < 0.001 µM
- IC50 [2]: 15.2 ± 2.9 µM
- IC50 [3]: 31.5 ± 9.8 µM

Compound: CC[C@H]1NC(=O)[C@@H](CCCNC(=N)N)NC(=O)[C@@](C)(NC(=O)C(C)C)CCCCNC(=O)[C@H](c2ccccc2)NC1=O [Cpd. No. 70, N-((3S,6R,9R,12S)-6-ethyl-9-(3-guanidinopropyl)-12-methyl-2,5,8,11-tetraoxo-3-phenyl-1,4,7,10-tetraazacyclohexadecan-12-yl)isobutyramide] (Isobutyryl-[αMeK][dR][dAbu][Phg]; lactam 1-C)
- IC50 [1]: > 100 µM
- IC50 [2]: > 100 µM
- IC50 [3]: > 100 µM

Compound: N-((3R,6S,9S,12R)-6-ethyl-9-(3-guanidinopropyl)-2,5,8,11-tetraoxo-3-phenyl-1,4,7,10-tetraazacyclohexadecan-12-yl)isobutyramide
- ring closure, yield after HPLC (amide bond, 16-membered ring, HATU/DIEA, DMF, 5.0 mM, with chain assembly): 12.7%

Compound: N-((3R,6S,9S,12R)-6-ethyl-9-(3-guanidinopropyl)-2,5,8,11-tetraoxo-3-phenyl-1,4,7,10-tetraazacyclopentadecan-12-yl)isobutyramide
- ring closure, yield after HPLC [6]: 21.5%

Compound: N-((3R,6S,9S,12R)-6-ethyl-9-(3-guanidinopropyl)-2,5,8,11-tetraoxo-3-phenyl-1,4,7,10-tetraazacyclotetradecan-12-yl)isobutyramide
- ring closure, yield after HPLC [7]: 21.7%

Compound: N-((3R,6S,9S,12R)-6-ethyl-9-(3-guanidinopropyl)-2,5,8,11-tetraoxo-3-phenyl-1,4,7,10-tetraazacyclotridecan-12-yl)isobutyramide
- ring closure, yield after HPLC (amide bond, 13-membered ring, HATU/DIEA, DMF, with chain assembly): 24.5%

Compound: N-((3R,6S,9S,12R)-6-ethyl-9-(3-guanidinopropyl)-12-methyl-2,5,8,11-tetraoxo-3-phenyl-1,4,7,10-tetraazacyclopentadecan-12-yl)isobutyramide
- ring closure, yield after HPLC [6]: 19.4%

Compound: N-((3R,6S,9S,12R)-6-ethyl-9-(3-guanidinopropyl)-12-methyl-2,5,8,11-tetraoxo-3-phenyl-1,4,7,10-tetraazacyclotetradecan-12-yl)isobutyramide
- ring closure, yield after HPLC [7]: 8.7%

Compound: N-((3R,6S,9S,12R)-6-ethyl-12-methyl-2,5,8,11-tetraoxo-3-phenyl-9-(3-ureidopropyl)-1,4,7,10-tetraazacyclotetradecan-12-yl)isobutyramide
- ring closure, yield after HPLC [7]: 6%

Compound: N-((3R,6S,9S,12R)-6-ethyl-12-methyl-9-(3-(3-methylguanidino)propyl)-2,5,8,11-tetraoxo-3-phenyl-1,4,7,10-tetraazacyclotetradecan-12-yl)isobutyramide
- ring closure, yield after HPLC [7]: 15.4%

Compound: N-((3R,6S,12R)-6-ethyl-12-methyl-2,5,8,11-tetraoxo-3-phenyl-9-(3-phenylpropyl)-1,4,7,10-tetraazacyclotetradecan-12-yl)isobutyramide
- ring closure, yield after HPLC [7]: 7%

Compound: N-((3R,6S,12R)-6-ethyl-12-methyl-2,5,8,11-tetraoxo-9-phenethyl-3-phenyl-1,4,7,10-tetraazacyclotetradecan-12-yl)isobutyramide
- ring closure, yield after HPLC [7]: 7%

Compound: N-((3R,6S,12R)-9-(3-amino-3-oxopropyl)-6-ethyl-12-methyl-2,5,8,11-tetraoxo-3-phenyl-1,4,7,10-tetraazacyclotetradecan-12-yl)isobutyramide
- ring closure, yield after HPLC [7]: 17%

Compound: N-((3S,6S,9S,12R)-6-ethyl-12-methyl-9-(3-(3-methylguanidino)propyl)-2,5,8,11-tetraoxo-3-phenyl-1,4,7,10-tetraazacyclotetradecan-12-yl)isobutyramide
- ring closure, yield after HPLC [7]: 7%
